Measured values as given in patent US9045501B2, “5-HT3 receptor modulators, methods of making, and use thereof” (Albany Molecular Research, Inc., priority 2009, dated 2015).

Columns and labels:
[1] = molecular target: human 5-HT3 receptor (Homo sapiens (Human), UniProt P46098); experiment: Radioligand binding assay (SPA format), affinity for the human 5-HT3 receptor; details: [9-methyl-3H]BRL-43694 10 nM, human 5-HT3 receptor membranes, Cheng Prusoff; read-out: h5-HT3A Ki
Experimental: The relative affinity of the various compounds for the human 5-HT3 receptor was measured in a radioligand binding assay, using a scintillation proximity assay (SPA) format. Test compounds were dissolved to 10 mM in 100% DMSO, then serially diluted at 10× assay concentrations in 100% DMSO in 96-well polypropylene plates and further diluted to 4× assay concentrations with the assay buffer. Samples were incubated in 50 mM Tris-HCl, pH 7.5, 3 mM MgCl2, 1 mM EDTA and 10% DMSO with 10 nM [9-methyl-^3H]BRL-43694 (Perkin Elmer), 3 μg of human 5-HT3 receptor membranes (Perkin Elmer) and 0.5 mg/mL SPA beads (WGA PVT, Amersham Biosciences) in a final volume of 0.2 mL. Binding reactions were set up in wells of PicoPlates-96 (Perkin Elmer) by adding consecutively 50 μL of each competing compound or buffer, SPA beads, the radioligand and 5-HT3 receptor membranes. After an overnight incubation at room temperature on a Nutator mixer, plates were centrifuged for 15 min at 1,500 rpm, followed by incubation in the dark for 30 min. Radioactivity was counted in the TopCount microplate counter (Perkin Elmer) for 5 min. Total binding control contained compound dilution buffer only; nonspecific binding was determined in the presence of 30 μM MDL-72222. Specific binding was determined by subtracting nonspecific binding from total binding. All experiments were performed in duplicate using ten concentrations of competing ligand, with ondansetron included as a control in every run. IC50 values were determined from specific binding data using XLfit4.1 curve fitting software from IDBS Ltd. The inhibition constant (Ki) was calculated from the Cheng Prusoff equation: (Ki=IC50/(1+(L/KD)), where L=concentration of radioligand in the assay, and KD=affinity of the radioligand for the receptor.

[2] = molecular target: h5-HT3A receptor (Homo sapiens (Human), UniProt P46098); experiment: Agonist activity at recombinant human 5-HT3A receptors, [Ca2+]i in HEK293 cells; format: cell-based; details: at 1 μM, normalized to the response of 5-HT (5-HT response = 100% at 3 μM); NR = no response
Experimental: Human embryonic kidney (HEK293) cells expressing the h5-HT3A receptor subunit were seeded directly into poly-D-lysine coated, black-walled, clear bottomed, 96 well plates with approximately 1×10^5 cells per well. After 48 hrs incubation in DMEM growth media (100 μL), cells were washed twice (each 200 μL) in Hank's balanced salt solution (Invitrogen) before incubation (1 hr) with Fluo-4 acetoxymethyl (AM) ester (100 μL, 2.5 μM; Molecular Probes). Cells were washed twice (each 200 μL) in Hank's balanced salt solution and incubated for a further 30 min in Hank's balanced salt solution (100 μL) prior to assay (25° C.). Alteration in [Ca^2+]i was measured (relative fluorescence units [RFU]) using a Flexstation (excitation 488 nm and emission 515 nm; frequency of recording 3 sec). After recording for at least 80 sec, vehicle (Hank's balanced salt solution) or drug was automatically administered to the well (50 μL). Baseline was calculated from the 5 data points immediately prior to the first drug administration and the maximum response was that achieved over the 240 sec following drug administration. In all experiments the muscarinic receptor agonist carbachol (1 mM) was added 240 sec after the test drug administration.

[3] = molecular target: 5-HT3 receptors (Mus musculus (Mouse), UniProt P23979); experiment: von Bezold-Jarisch model in vivo: inhibition of 5-HT induced bradycardia; details: 3 mg/kg oral, 60 min before 5-HT 0.1 mg/kg IV, anesthetized male ICR mice; highest oral dose tested
Experimental: This is a well characterized and widely used model to assess 5-HT3 receptor function in vivo (King et al., 5-Hydroxtryptamine-3 Receptor Antagonists, CRC Press, pp. 74-75 (1993), which is hereby incorporated by reference in its entirety). Certain compounds (Table 1) were evaluated for their ability to inhibit serotonin induced bradycardia in vivo in the mouse (Saxena et al., Arch. Int. Pharmacodyn., 277:235-252 (1985), which is hereby incorporated by reference in its entirety). Test substances and vehicle [2% Tween 80] were each administered orally to a group of 5 male ICR mice each weighing 24±2 g. A dosing volume of 10 mL/kg was used. Sixty minutes later, 5-HT (0.1 mg/kg IV)-induced bradycardia was recorded in urethane (2250 mg/kg IP, given 10 minutes before 5-HT)-anesthetized animals.

Chain of 5-HT3 receptors (P23979 24-489): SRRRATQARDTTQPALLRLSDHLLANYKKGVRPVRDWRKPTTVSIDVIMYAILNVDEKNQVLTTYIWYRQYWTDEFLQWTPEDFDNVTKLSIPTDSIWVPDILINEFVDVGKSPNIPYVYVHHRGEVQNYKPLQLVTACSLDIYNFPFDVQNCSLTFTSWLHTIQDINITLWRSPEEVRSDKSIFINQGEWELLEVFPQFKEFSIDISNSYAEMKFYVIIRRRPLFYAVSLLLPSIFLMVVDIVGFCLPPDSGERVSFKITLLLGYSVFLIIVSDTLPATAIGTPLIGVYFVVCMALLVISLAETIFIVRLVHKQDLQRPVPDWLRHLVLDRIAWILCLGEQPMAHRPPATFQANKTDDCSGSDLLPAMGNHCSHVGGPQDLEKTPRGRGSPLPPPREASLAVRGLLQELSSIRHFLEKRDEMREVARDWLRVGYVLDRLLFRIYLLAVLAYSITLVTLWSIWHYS
Chain of h5-HT3A receptor (P46098 24-478): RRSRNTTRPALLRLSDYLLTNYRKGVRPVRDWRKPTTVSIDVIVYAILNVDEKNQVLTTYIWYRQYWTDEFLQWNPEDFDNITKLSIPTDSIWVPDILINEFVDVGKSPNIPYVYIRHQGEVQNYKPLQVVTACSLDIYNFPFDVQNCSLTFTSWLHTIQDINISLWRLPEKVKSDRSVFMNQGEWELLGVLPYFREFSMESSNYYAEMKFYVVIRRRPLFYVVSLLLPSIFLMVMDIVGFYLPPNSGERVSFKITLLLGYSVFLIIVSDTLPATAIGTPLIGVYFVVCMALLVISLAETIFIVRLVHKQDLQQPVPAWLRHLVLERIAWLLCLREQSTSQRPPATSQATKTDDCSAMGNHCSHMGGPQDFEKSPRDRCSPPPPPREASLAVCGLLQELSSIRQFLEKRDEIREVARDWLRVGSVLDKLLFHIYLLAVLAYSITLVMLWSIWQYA
Chain of human 5-HT3 receptor (P46098 24-478): as above

SMILES	Ki [1] [nM]	HEK293 h5-HT3A % agonist response [2] [%]	Inhibition of 5-HT Induced Bradycardia in Mice [3] [% @ 3 mg/kg]
O=C1c2cccc3[nH]nc(c23)CN1CC12CCN(CC1)CC2 [Example 29, 4-(quinuclidin-4-ylmethyl)-3,4-dihydropyrazolo[3,4,5-de]isoquinolin-5(1H)-one]	2	1	87
O=C1c2cccc3cnn(c23)CCN1[C@@H]1CN2CCC1CC2 [Example 7, (S)-7-(quinuclidin-3-yl)-8,9-dihydro-[1,4]diazepino[6,7,1-hi]indazol-6(7H)-one]	8	19	77
